Data set [1] deals with T1, human M1 receptor (hCHRM1) (Homo sapiens, UniProt P11229).
T1 construct: expressed in transfected cells; host or cells: CHO-K1
T1 sequence (P11229 1-460): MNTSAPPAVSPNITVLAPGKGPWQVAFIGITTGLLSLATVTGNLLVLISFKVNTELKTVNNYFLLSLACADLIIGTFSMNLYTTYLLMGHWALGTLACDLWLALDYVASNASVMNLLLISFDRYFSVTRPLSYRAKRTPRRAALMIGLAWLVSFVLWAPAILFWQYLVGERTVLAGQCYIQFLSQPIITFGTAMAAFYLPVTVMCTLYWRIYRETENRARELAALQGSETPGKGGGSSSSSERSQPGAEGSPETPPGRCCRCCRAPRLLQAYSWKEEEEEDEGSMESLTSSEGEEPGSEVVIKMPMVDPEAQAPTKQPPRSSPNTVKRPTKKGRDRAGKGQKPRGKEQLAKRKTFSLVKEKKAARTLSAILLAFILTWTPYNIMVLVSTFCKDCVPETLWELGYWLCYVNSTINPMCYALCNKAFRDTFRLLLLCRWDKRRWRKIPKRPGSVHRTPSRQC
The data set is described as follows: Measurement of cholinergic muscarinic M1 receptor positive allosteric modulator (M1PAM) activity, calcium fluorescence (FLIPRtetra). It counts as cell-based. To be noted: for activity (%) at 10 μM: test compound 10 μM with acetylcholine at EC20 (final 0.6 nM), 100% = acetylcholine 1 μM, 0% = DMSO. On the procedure: The activity of a test compound in the presence of acetylcholine at EC20 concentration (final concentration 0.6 nM), which affords an action corresponding to 20% of the maximum activity, was measured as M1PAM activity. The method is as follows. CHO-K1 cells forcibly expressing a human M1 receptor (hCHRM1) were plated on a 384-well black clear bottom plate (BD Falcon) at 5,000 cells/well, and cultured in an incubator at 37° C., 5% CO2 for 1 day. The medium in the cell plate was removed, and assay buffer A (Recording medium (DOJINDO LABORATORIES), 0.1% bovine serum albumin (BSA) (Wako Pure Chemical Industries, Ltd.), 2.5 μg/mL Fluo-4 AM (DOJINDO LABORATORIES), 0.08% Pluronic F127 (DOJINDO LABORATORIES), 1.25 mM probenecid (DOJINDO LABORATORIES)) containing a calcium indicator was added at 30 μL/well. The cells were left standing in the incubator at 37° C., 5% CO2 for 30 min, and further left standing at room temperature for 30 min. A test compound prepared by diluting with assay buffer B (HBSS (Invitrogen), 20 mM HEPES (Invitrogen), 0.1% BSA) containing 2.4 nM acetylcholine was added at 10 μL/well, and the fluorescence was measured by FLIPRtetra (Molecular Devices) for 1 min every 1 second. With the definition that the amount of change in the fluorescence on addition of acetylcholine (final concentration 1 μM) is 100% and that on addition of DMSO instead of a test compound is 0%, the activity (%) of the test compound and the inflection point in the concentration-dependent curve of the test compound were calculated as IP values.

Data set [2] is described as follows: Central migration (Kp value) measurement test. It is filed as in vivo. Conditions: male, Jcl ICR, mouse, brain/plasma, mice, ratio of intracerebral (μg/g) to plasma (μg/mL) concentration; for Kp at 1 h: po, 1 mg/kg, 1 mg/10 mL/kg. On the procedure:
A. Compounds of Examples 6 and 10 (Intravenous Administration: i.v.) […]
animal: male Jcl ICR mice 7-week-old n=3 […]
administration conditions: intravenous administration 0.20 mg/l mL/kg (4 compounds/cassette administration) administration medium: N,N-dimethylacetamide (DMA)/1,3-Butanediol (1:1) sample: plasma, brain (homogenate was prepared by adding 4-fold amount of saline) plasma sampling time: 0.25 hr brain sampling time: 0.25 hr […]
animal: male Jcl ICR mice 8-week-old n=3 […]
administration medium: DMA/1,3-Butanediol (1:1) […]
plasma sampling time: 0.5 hr brain sampling time: 0.5 hr […]
column: Shimadzu Shim-pack XR-ODS (2.2 μm, 2.0×30 mm) mobile phase A: 10 mmol/L ammonium formate/formic acid (100:0.2, v/v) mobile phase B: acetonitrile/formic acid (100:0.2, v/v) […]
column temperature: 50° C. sample injection volume: 1 μL (Example 6), 2 μL (Example 10) plasma pre-treatment conditions: A standard solution dissolution solvent (DMSO) or a standard solution (5 μL) was added to a sample (50 μL). Acetonitrile (150 μL) containing the internal standard substance was added, and the mixture was vigorously stirred and centrifuged at 5250 rpm. A dilution solvent (160 μL) was added to the centrifuged supernatant (60 μL). The solution (40 μL) was taken, and the dilution solvent (160 μL) was added to give a sample solution for compound plasma concentration measurement (mobile phase A:mobile phase B=7:3 (v/v) was used as the dilution solvent). brain pre-treatment conditions: The standard solution dissolution solvent (DMSO) or standard solution (5 μL) was added to a sample (50 μL). Acetonitrile (150 μL) containing the internal standard substance was added, and the mixture was vigorously stirred, and centrifuged at 5250 rpm. A dilution solvent (160 μL) was added to the centrifuged supernatant (60 μL). The solution (40 μL) was taken, and the dilution solvent (160 μL) was added to give a sample solution for intracerebral compound concentration measurement (mobile phase A:mobile phase B=7:3 (v/v) was used as the dilution solvent). B. Compounds of Examples 92 and 94 (Oral Administration: p.o.) animal: male Jcl ICR mice 10-week-old n=3 feeding: nonfasting administration conditions: oral administration 1 mg/10 mL/kg (5 compounds/cassette administration) administration medium: 0.5% methylcellulose solution sample: plasma, brain (homogenate was prepared by adding 4-fold amount of saline) plasma sampling time: 1 hr brain sampling time: 1 hr HPLC Analysis Conditions column: Shimadzu Shim-pack XR-ODS (2.2 μm, 2.0×30 mm) mobile phase A: 10 mmol/L ammonium formate/formic acid (100:0.2, v/v) mobile phase B: acetonitrile/formic acid (100:0.2, v/v) flow rate: 0.7 mL/min. column temperature: 50° C. sample injection volume: 1 μL […]

[3] abbreviates: inflection point of the concentration-dependent curve, with acetylcholine at EC20 (final 0.6 nM), CHO-K1 cells expressing hCHRM1, read-out: IP value.

Where two headings read alike, the source gives them in different places.

The values below come from patent US9403802B2, “Heterocyclic compound and use therefor” (Takeda Pharmaceutical Company Limited, priority 2012, dated 2016).

In general, Kp refers to tissue or fluid exposure divided by exposure in the circulation.

As to `COc1ccc(Cn2cc(C(=O)N[C@H]3CCOC[C@@H]3O)c(=O)c3c(F)ccc(F)c32)cc1` (racemic) [Example 6, 1,5-anhydro-2,3-dideoxy-3-({[5,8-difluoro-1-(4-methoxybenzyl)-4-oxo-1,4-dihydroquinolin-3-yl]carbonyl}amino)-DL-threo-pentitol], the EC50 in data set [1] amounted to 16 nM. In addition, the “activity (%) at 10 μM” value in data set [1] (CHO-K1 cells expressing hCHRM1) was found to be 98%. In addition, the Kp at 0.25 h in data set [2] (iv, 0.2 mg/kg, 0.2 mg/1 mL/kg, sampling time 0.25 hr) stood at 0.1.

Consider `COc1ccc(Cn2cc(C(=O)N[C@H]3CCCC[C@@H]3O)c(=O)c3c(F)ccc(F)c32)cc1` (racemic) [Example 10, 5,8-difluoro-N-[(1,2-trans)-2-hydroxycyclohexyl]-1-(4-methoxybenzyl)-4-oxo-1,4-dihydroquinoline-3-carboxamide], for which the EC50 in data set [1] was found to be 55 nM. For the same molecule, the “activity (%) at 10 μM” value in data set [1] (CHO-K1 cells expressing hCHRM1) stood at 103%. Moreover, the partition ratio (Kp) at 0.5 h in data set [2] (iv, 0.2 mg/kg, 0.2 mg/1 mL/kg, sampling time 0.5 hr) was 0.33.

Take `O=C(N[C@H]1CCC[C@@H]1O)c1cn(Cc2ccc(-n3cccn3)cc2)c2c(F)cccc2c1=O` (racemic) [Example 92, 8-fluoro-N-[(1,2-trans)-2-hydroxycyclopentyl]-4-oxo-1-[4-(1H-pyrazol-1-yl)benzyl]-1,4-dihydroquinoline-3-carboxamide]: in data set [1], the EC50 came out at 55 nM. Moreover, the “activity (%) at 10 μM” value in data set [1] (CHO-K1 cells expressing hCHRM1) was determined as 104%. For the same molecule, the Kp at 1 h in data set [2] came out at 0.16.

`Cc1nn(C)cc1-c1ccc(Cn2cc(C(=O)N[C@H]3CCC[C@@H]3O)c(=O)c3ccccc32)cc1` (racemic) [Example 94, 1-[4-(1,3-dimethyl-1H-pyrazol-4-yl)benzyl]-N-[(1,2-trans)-2-hydroxycyclopentyl]-4-oxo-1,4-dihydroquinoline-3-carboxamide]: the EC50 in data set [1] came to 8.5 nM. Moreover, the “activity (%) at 10 μM” value in data set [1] (CHO-K1 cells expressing hCHRM1) worked out at 95%. In data set [2], the Kp at 1 h worked out at 0.03.

As for `COc1ccc(Cn2nc(C(=O)N[C@@H]3CCCC[C@H]3O)c(=O)c3ccccc32)cc1` [Example 52, N-[(1R,2R)-2-hydroxycyclohexyl]-1-(4-methoxybenzyl)-4-oxo-1,4-dihydrocinnoline-3-carboxamide], the EC50 in data set [1] (setting [3]) turned out to be 1900 nM. In data set [1] (CHO-K1 cells expressing hCHRM1), the “activity (%) at 10 μM” value is 87%.

On to `NC(=O)c1ccc(Cn2nc(C(N)=O)c(=O)c3ccccc32)cc1` [Example 73, 1-(4-carbamoylbenzyl)-4-oxo-1,4-dihydrocinnoline-3-carboxamide], for which, in data set [1] (setting [3]), the EC50 was 63 nM. The “activity (%) at 10 μM” value in data set [1] (CHO-K1 cells expressing hCHRM1) is recorded as 96%.

Regarding `NC(=O)c1ccc(Cn2cc(C(=O)N[C@H]3CCCC[C@@H]3O)c(=O)c3ccccc32)cc1` [Example 78, 1-(4-carbamoylbenzyl)-N-[(1S,2S)-2-hydroxycyclohexyl]-4-oxo-1,4-dihydroquinoline-3-carboxamide], in data set [1], the EC50 turned out to be 2.2 nM. In data set [1] (CHO-K1 cells expressing hCHRM1), the “activity (%) at 10 μM” value came to 86%.
